In US7910622B2, “Modulation of bacterial quorum sensing with synthetic ligands” (Wisconsin Alumni Research Foundation, priority 2007, dated 2011):
Read-outs that look alike come from different tables or passages of the source.

Experiments:
[1] = target: T1, LuxR (Aliivibrio fischeri, UniProt P35327); experiment: cell-based; assay type: cell-based, Vibrio fischeri; conditions: for V. fischeri-LuxR Inhibition [%]: 5 μM synthetic ligand against 5 μM OHHL; for V. fischeri-LuxR Inhibition [%] / inhibition at 5 µM: V. fischeri ES114 (Δ-luxI), normalized to OHHL; for IC50: LuxR IC50, determined against 5 μM OHHL; for inhibition at 5 µM: read-out: V. fischeri-LuxR Inhibition [%], 5 μM synthetic ligand against 5 μM OHHL
T1 construct: a Δ-luxI derivative of V. fischeri ES114, in which the native lux operon behaves as the bioluminescent reporter; endogenous in cells; host or cells: V. fischeri ES114 (Δ-luxI)
T1 sequence (P35327 whole entry): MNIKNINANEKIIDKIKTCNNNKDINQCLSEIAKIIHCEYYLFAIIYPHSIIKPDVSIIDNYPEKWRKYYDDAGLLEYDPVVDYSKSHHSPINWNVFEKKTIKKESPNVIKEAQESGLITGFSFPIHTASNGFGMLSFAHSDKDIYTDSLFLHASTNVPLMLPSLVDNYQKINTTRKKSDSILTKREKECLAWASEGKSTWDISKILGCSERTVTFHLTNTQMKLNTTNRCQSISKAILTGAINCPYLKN
Outline: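 Whole-cell luminescence reporter in V. fischeri ES114 (WT, Δ-luxI or Δ-luxR) or E. coli, overnight cultures diluted 1:10 and grown with compound at RT (E. coli 30° C) to OD600 0.35-0.4 (4-6 h). Luminescence normalized to cell density, triplicates; EC50/IC50 from sigmoidal fit.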

[2] = tested on: wild-type V. fischeri ES114; experiment: Luminescence dose response in wild-type V. fischeri ES114; assay type: cell-based, Vibrio fischeri; conditions: relative to OHHL
Method: Vibrio fischeri assay procedures. For primary agonism assays, an appropriate amount of concentrated control or PHL (11) stock solution, to give a final concentration of 200 μM, was added to wells in a 96-well multititer plate. An overnight culture of V. fischeri ES114 (WT, Δ-luxI or Δ-luxR) was diluted 1:10 with LBS medium. A-200 μL portion of the diluted culture was added to each well of the plate. Plates were grown at RT with shaking (200 rpm) until the OD600=0.35-0.4 (4-6 h). Luminescence then was measured and normalized to cell density per well. […] Similar methods were used for dose response assays, except the concentrations of controls and PHLs 11 used were between 0.02 and 2×10^5 nM. All assays were performed in triplicate. IC50 and EC50 values were calculated using GraphPad Prism software using a sigmoidal curve fit.

[3] = target: T2, QscR (Pseudomonas aeruginosa, UniProt G3XD77); experiment: QscR competitive antagonism reporter gene assay (β-gal) against DDHL in recombinant E. coli (pJN105Q); assay type: cell-based
T2 construct: expressed in transfected cells; host or cells: recombinant E. coli (pJN105Q) with β-gal promoter fusion
T2 sequence (G3XD77 entry or part of it): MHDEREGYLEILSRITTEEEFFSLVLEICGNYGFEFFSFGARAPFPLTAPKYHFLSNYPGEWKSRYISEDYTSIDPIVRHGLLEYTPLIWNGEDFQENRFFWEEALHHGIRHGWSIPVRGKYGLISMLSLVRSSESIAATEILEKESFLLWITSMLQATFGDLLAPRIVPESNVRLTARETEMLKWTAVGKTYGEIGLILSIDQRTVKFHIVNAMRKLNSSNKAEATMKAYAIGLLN
Method: The bacterial reporter strains used in this study were: E. coli pJN105L (P. aeruginosa, LasR), P. aeruginosa MW1 yfp (LasR), E. coli pJN105Q (P. aeruginosa, QscR), A. tumefaciens WCF (TraR), and V. fischeri ES114-luxI (LuxR).
We screened our AHL libraries for agonistic and antagonistic activity against QscR using a previously reported, recombinant E. coli strain that reports QscR activity via the production of β-galactosidase (β-gal) from a promoter fusion. […] All AHLs were examined at 5 μM concentrations.

[4] = target: QscR:DNA binding (PA1897 promoter) (Pseudomonas aeruginosa, UniProt G3XD77)
QscR:DNA binding (PA1897 promoter), sequence (G3XD77 entry or part of it): as above
Excerpt: We sought to obtain further insights into the mechanism of QscR modulation by non-native AHLs. […] We therefore performed electromobility shift assays (EMSA) on purified QscR and radiolabeled PA1897 promoter in the presence of selected QscR antagonists and 1.

| Compound | V. fischeri-LuxR Inhibition [%] [1] [%] | IC50 [1] [nM] | inhibition at 5 µM [1] [%] | other results |
| --- | --- | --- | --- | --- |
| 3-nitro PHL [B17] | −15 | – | – | activity in wild-type V. fischeri [2]: super-agonistic activity |
| O=C(Cc1ccc(Br)cc1)N[C@H]1CCOC1=O [compound 8, N-(4-bromo-phenylacetanoyl)-L-homoserine lactone, reference compound] | – | 3700 | ~76 | – |
| O=C(Cc1ccc(-c2ccccc2)cc1)NC1CCOC1=O (centres unmarked) [B21, 4-phenyl PHL] | – | 1060 | ~70 | – |
| O=C(Cc1ccc(Br)cc1)N[C@H]1CCOC1=O [A17, 4-bromo-phenylacetanoyl HL, reference compound] | 79 | – | – | – |
| O=C(CCCc1c[nH]c2ccccc12)N[C@H]1CCOC1=O [A18, indole AHL, reference compound] | 72 | – | – | – |
| O=C(Cc1ccc(-c2ccccc2)cc1)N[C@H]1CCOC1=O [C18, 4-phenyl PHL] | – | 1060 | – | Inhibition (%) ([1]; V. fischeri-LuxR, Library C primary antagonism screen): 79%; IC50 [3]: 30 nM; inhibition of OdDHL-dependent QscR:DNA binding ([4]; 100:1 ratio with OdDHL): 85%; reduction of QscR:DNA binding ([4]; 1000:1 ratio vs. OdDHL): 100%; inhibition of OdDHL-dependent QscR:DNA binding ([4]; EMSA): capable of inhibiting OdDHL (1)-dependent QscR:DNA binding |
